Results: paper PMC9241976 (Chemical Science, 2022)

Tested on: MCF-7 cells
Test: Sulforhodamine B assay, cytostatic and cytotoxic activity
Type: cell-based, human
Conditions: LC50 versus GI50 of the same compound

For polytheonamide B [Compound 5], the “difference between GI50 and LC50” value was 19 fold.
